From US10550105B2 (Ribon Therapeutics Inc., priority 2018, dated 2020)

What follows are compounds tested against PARP7 (Homo sapiens (Human), UniProt Q7Z3E1) (assay: Enzymatic assay for inhibition of PARP7: TR-FRET displacement of biotinylated Probe A from the TIPARP active site). Conditions: Table A-1.
Format: binding
In short: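 Read-out: 665/615 nm emission ratio (ex 320 nm, 90 μs delay) indexing bound TIPARP–Probe A. Final incubation 30 min, 25° C; compounds in dose response. Curve fit of % inhibition vs concentration; Hill slope floating or fixed at 1 (3-parameter).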

PARP7, sequence (Q7Z3E1 whole entry): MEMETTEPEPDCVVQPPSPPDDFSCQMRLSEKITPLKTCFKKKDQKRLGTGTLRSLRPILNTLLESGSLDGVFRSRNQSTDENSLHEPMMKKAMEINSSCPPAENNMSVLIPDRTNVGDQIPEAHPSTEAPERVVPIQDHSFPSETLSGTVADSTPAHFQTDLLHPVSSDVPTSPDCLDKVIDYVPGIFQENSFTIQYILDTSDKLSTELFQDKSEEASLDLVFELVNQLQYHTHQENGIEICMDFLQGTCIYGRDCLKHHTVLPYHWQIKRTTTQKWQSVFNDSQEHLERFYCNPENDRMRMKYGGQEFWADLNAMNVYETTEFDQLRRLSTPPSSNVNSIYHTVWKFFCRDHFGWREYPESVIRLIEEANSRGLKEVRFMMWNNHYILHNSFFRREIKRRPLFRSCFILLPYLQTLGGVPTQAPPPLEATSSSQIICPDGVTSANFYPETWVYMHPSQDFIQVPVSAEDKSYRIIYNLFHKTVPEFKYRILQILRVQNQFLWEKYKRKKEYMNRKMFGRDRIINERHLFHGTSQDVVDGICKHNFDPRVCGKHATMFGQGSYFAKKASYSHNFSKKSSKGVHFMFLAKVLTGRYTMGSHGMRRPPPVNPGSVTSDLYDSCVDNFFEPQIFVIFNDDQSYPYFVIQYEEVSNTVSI

Structure (SMILES)	IC50 [µM]
CC(=O)N1CCC(NCc2cc3c(cc2F)CN(c2cn[nH]c(=O)c2C(F)(F)F)C3)CC1 [Example 24, 5-(5-[[(1-acetylpiperidin-4-yl)amino]methyl]-6-fluoro-2,3-dihydro-1H-isoindol-2-yl)-4-(trifluoromethyl)-2,3-dihydropyridazin-3-one]	< 0.1
Cc1ccc(N2CCN(C(=O)c3cccc(OC[C@@H]4CCCN4c4cn[nH]c(=O)c4C(F)(F)F)c3)CC2)nc1 [Example 446, (S)-5-(2-((3-(4-(5-Methylpyridin-2-yl)piperazine-1-carbonyl)phenoxy)methyl)pyrrolidin-1-yl)-4-(trifluoromethyl)pyridazin-3(2H)-one]	< 0.1
N#Cc1ccc(N2CCN(C(=O)CCOC[C@@H]3c4ncccc4CN3c3cn[nH]c(=O)c3Cl)CC2)nc1 [Example 431, (S)-6-(4-(3-((6-(5-Chloro-6-oxo-1,6-dihydropyridazin-4-yl)-6,7-dihydro-5H-pyrrolo[3,4-b]pyridin-7-yl)methoxy)propanoyl)piperazin-1-yl)nicotinonitrile]	< 0.1
CN1CCC(Oc2ccc3c(c2)CN(c2cn[nH]c(=O)c2C(F)(F)F)C3)C1 (stereo not drawn) [Example 238, 5-(5-((1-Methylpyrrolidin-3-yl)oxy)isoindolin-2-yl)-4-(trifluoromethyl)pyridazin-3(2H)-one]	< 0.1
O=c1[nH]ncc(N2Cc3ccc(OCCO)nc3C2)c1C(F)(F)F [Example 312, 5-(2-(2-Hydroxyethoxy)-5,7-dihydro-6H-pyrrolo[3,4-b]pyridin-6-yl)-4-(trifluoromethyl)pyridazin-3(2H)-one]	0.1 to 1
CN(C)CCOc1cccc2c1CN(c1cn[nH]c(=O)c1Cl)C2 [Example 166, 4-Chloro-5-(4-(2-(dimethylamino)ethoxy)isoindolin-2-yl)pyridazin-3(2H)-one]	≥ 1
O=c1[nH]ncc(N2Cc3cccc(OCCN4CCCCC4)c3C2)c1Cl [Example 256, 4-Chloro-5-(4-(2-(piperidin-1-yl)ethoxy)isoindolin-2-yl)pyridazin-3(2H)-one]	≥ 1
CN(C)C1CCN(c2cccc3c2CN(c2cn[nH]c(=O)c2C(F)(F)F)C3)CC1 [Example 281, 5-(4-(4-(Dimethylamino)piperidin-1-yl)isoindolin-2-yl)-4-(trifluoromethyl)pyridazin-3(2H)-one]	0.1 to 1
O=C(c1cccc(NCC2c3ccccc3CN2c2cn[nH]c(=O)c2C(F)(F)F)c1)N1CCN(c2ccccn2)CC1 (stereo not drawn) [Example 351, 5-(1-(((3-(4-(Pyridin-2-yl)piperazine-1-carbonyl)phenyl)amino)methyl)isoindolin-2-yl)-4-(trifluoromethyl)pyridazin-3(2H)-one]	0.1 to 1
N#Cc1cnc(N2CCN(C(=O)c3cccc(OC[C@@H]4c5ccccc5CN4c4cn[nH]c(=O)c4C(F)(F)F)c3)CC2)cn1 [Example 370, (S)-5-(4-(3-((2-(6-Oxo-5-(trifluoromethyl)-1,6-dihydropyridazin-4-yl)isoindohn-1-yl)methoxy)benzoyl)piperazin-1-yl)pyrazine-2-carbonitrile]	< 0.1
CC(=O)N1CCC(Oc2cc3c(cc2F)CN(c2cn[nH]c(=O)c2C(F)(F)F)C3)CC1 [Example 1, 5-[5-[(1-acetylpiperidin-4-yl)oxy]-6-fluoro-2,3-dihydro-1 H-isoindol-2-yl]-4-(trifluoromethyl)-2,3-dihydropyridazin-3-one]	< 0.1
O=C(c1cccc(OC[C@@H]2c3ccccc3CN2c2cn[nH]c(=O)c2C(F)(F)F)c1)N1CCN(c2ccc(C(F)(F)F)cn2)CC1 (single isomer, unassigned) [Example 30 Isomer B]	< 0.1
N#Cc1ccc(N2CCN(C(=O)[C@H]3CC[C@@H](OC[C@@H]4CCCN4c4cn[nH]c(=O)c4C(F)(F)F)CC3)CC2)nc1 (single isomer, unassigned; isomer b) [Example 82 Isomer B]	0.1 to 1
N#Cc1ncc(N2CCN(C(=O)CCOC[C@@H]3CCCN3c3cn[nH]c(=O)c3C(F)(F)F)CC2)cn1 [Example 476, (S)-5-(4-(3-((1-(6-Oxo-5-(trifluoromethyl)-1,6-dihydropyridazin-4-yl)pyrrolidin-2-yl)methoxy)propanoyl)piperazin-1-yl)pyrimidine-2-carbonitrile]	0.1 to 1
O=c1[nH]ncc(N2Cc3cccc(NC4CCNCC4)c3C2)c1C(F)(F)F [Example 297, 5-(4-(Piperidin-4-ylamino)isoindolin-2-yl)-4-(trifluoromethyl)pyridazin-3(2H)-one]	0.1 to 1
N#Cc1ccc(N2CCN(C(=O)c3ccc(OCc4cccc5c4CN(c4cn[nH]c(=O)c4C(F)(F)F)C5)cc3)CC2)nc1 [Example 400]	< 0.1
O=c1[nH]ncc(N2Cc3cccc(Cl)c3C2)c1C(F)(F)F [Example 265, 5-(4-Chloroisoindolin-2-yl)-4-(trifluoromethyl)pyridazin-3(2H)-one]	< 0.1
O=c1[nH]ncc(N2Cc3ccc(OCc4cccnc4)nc3C2)c1C(F)(F)F [Example 313, 5-(2-(Pyridin-3-ylmethoxy)-5,7-dihydro-6H-pyrrolo[3,4-b]pyridin-6-yl)-4-(trifluoromethyl)pyridazin-3(2H)-one]	< 0.1
CN(CC1c2ccccc2CN1c1cn[nH]c(=O)c1C(F)(F)F)c1cccc(C(=O)N2CCN(c3ccccn3)CC2)c1 (stereo not drawn) [Example 344, 5-(1-((Methyl(3-(4-(pyridin-2-yl)piperazine-1-carbonyl)phenyl)amino)methyl)isoindolin-2-yl)-4-(trifluoromethyl)pyridazin-3(2H)-one]	0.1 to 1
O=C(O)c1cccc(OCC2c3ccccc3CN2c2cn[nH]c(=O)c2C(F)(F)F)c1 (stereo not drawn) [Example 342, 3-((2-(6-Oxo-5-(trifluoromethyl)-1,6-dihydropyridazin-4-yl)isoindolin-1-yl)methoxy)benzoic acid]	≥ 1
O=c1[nH]ncc(N2Cc3cc(F)c(OC4CCNC4)cc3C2)c1C(F)(F)F (stereo not drawn) [Example 53, 5-(5-fluoro-6-(pyrrolidin-3-yloxy)isoindolin-2-yl)-4-(trifluoromethyl)pyridazin-3(2H)-one]	< 0.1
COc1cccc2c1CN(c1cn[nH]c(=O)c1C(F)(F)F)C2 [Example 164, 5-(4-Methoxyisoindolin-2-yl)-4-(trifluoromethyl)pyridazin-3(2H)-one]	< 0.1
N#Cc1ccc(N2CCN(C(=O)NCCOC[C@@H]3CCCN3c3cn[nH]c(=O)c3C(F)(F)F)CC2)nc1 [Example 126, 4-(5-cyanopyridin-2-yl)-N-(2-[[(2S)-1-[6-oxo-5-(trifluoromethyl)-1,6-dihydropyridazin-4-yl]pyrrolidin-2-yl]methoxy]ethyl)piperazine-1-carboxamide]	< 0.1

Continued, values first:

IC50 [µM]	Structure (SMILES)
< 0.1	C[C@@H](COCCC(=O)N1CCN(c2ncccc2C#N)CC1)Nc1cn[nH]c(=O)c1C(F)(F)F [Example 676, (S)-2-(4-(3-(2-((6-Oxo-5-(trifluoromethyl)-1,6-dihydropyridazin-4-yl)amino)propoxy)propanoyl)piperazin-1-yl)nicotinonitrile]
< 0.1	O=C(CCOC[C@H](CO)Nc1cn[nH]c(=O)c1Br)N1CCN(c2ncc(C(F)(F)F)cn2)CC1 [Example 660, (S)-4-Bromo-5-((1-hydroxy-3-(3-oxo-3-(4-(5-(trifluoromethyl)pyrimidin-2-yl)piperazin-1-yl)propoxy)propan-2-yl)amino)pyridazin-3(2H)-one]
< 0.1	COC[C@@H](COCCS(=O)(=O)N1CCN(c2ncc(C(F)(F)F)cn2)CC1)Nc1cn[nH]c(=O)c1C(F)(F)F [Example 624, (S)-5-((1-Methoxy-3-(2-[(4-(5-(trifluoromethyl)pyrimidin-2-yl)piperazin-1-yl)sulfonyl)ethoxy)propan-2-yl)amino)-4-(trifluoromethyl)pyridazin-3(2H)-one]
< 0.1	N#Cc1ccc(N2CCN(C(=O)CCOC[C@@H](Nc3cn[nH]c(=O)c3C(F)(F)F)c3ccccc3)CC2)nc1 [Example 514B, 6-(4-[3-[(2S)-2-[[6-Oxo-5-(trifluoromethyl)-1,6-dihydropyridazin-4-yl]amino]-2-phenylethoxy]propanoyl]piperazin-1-yl)pyridine-3-carbonitrile]
< 0.1	C[C@@H](COCCS(=O)(=O)N1CCN(c2ncc(C(F)(F)F)cn2)CC1)Nc1cn[nH]c(=O)c1C(F)(F)F [Example 620, (S)-4-(Trifluoromethyl)-5-((1-(2-((4-(5-(trifluoromethyl)pyrimidin-2-yl)piperazin-1-yl)sulfonyl)ethoxy)propan-2-yl)amino)pyridazin-3(2H)-one]
≥ 1	N#Cc1ccc(N2CCN(C(=O)CCOC[C@H](Nc3cn[nH]c(=O)c3C(F)(F)F)c3ccccc3)CC2)nc1 [Example 514A, 6-(4-[3-[(2R)-2-[[6-Oxo-5-(trifluoromethyl)-1,6-dihydropyridazin-4-yl]amino]-2-phenylethoxy]propanoyl]piperazin-1-yl)pyridine-3-carbonitrile]
< 0.1	C[C@@H](COCCC(=O)N1CCC(c2ncc(C(F)(F)F)cn2)CC1)Nc1cn[nH]c(=O)c1C(F)(F)F [Example 664, (S)-5-((1-(3-Oxo-3-(4-(5-(trifluoromethyl)pyrimidin-2-yl)piperidin-1-yl)propoxy)propan-2-yl)amino)-4-(trifluoromethyl)pyridazin-3(2H)-one]
< 0.1	N#Cc1ccc(N2CCN(C(=O)COCCCOc3cn[nH]c(=O)c3C(F)(F)F)CC2)nc1 [Example 517, 6-(4-(2-(3-(6-Oxo-5-(trifluoromethyl)-1,6-dihydropyridazin-4-yloxy)propoxy)acetyl)piperazin-1-yl)nicotinonitrile]
< 0.1	N#Cc1ccc(N2CCN(C(=O)CCOC[C@@H](Nc3cn[nH]c(=O)c3C(F)(F)F)C3CC3)CC2)nc1 [Example 605, (S)-6-[4-[3-[2-Cyclopropyl-2-[[6-oxo-5-(trifluoromethyl)-1,6-dihydropyridazin-4-yl]amino]ethoxy]propanoyl]piperazin-1-yl]nicotinonitrile]
< 0.1	C[C@@H](COc1cn[nH]c(=O)c1Cl)OCCC(=O)N1CCN(c2ncc(C(F)(F)F)cn2)CC1 [Example 578 Isomer B, (S)-4-Chloro-5-(2-(3-oxo-3-(4-(5-(trifluoromethyl)pyrimidin-2-yl)piperazin-1-yl)propoxy)propoxy)pyridazin-3(2H)-one]
